Data reported in patent US20050234066A1, “Alpha substituted carboxylic acids” (Agouron Pharmaceuticals, Inc., priority 2004, published 2005).
Where “and” joins values, the source holds several entries; their conditions need not be identical. Equal values may be shown once.

How the values were obtained:
PPAR-γ = biological target: T1, PPAR-γ (Homo sapiens, UniProt P37231); experiment: Scintillation Proximity Assay (SPA), displacement of 3H labeled darglitazone; format: binding; conditions: 3H darglitazone displacement, read-out: PPAR-gamma Ki
T1 sequence (P37231 1-505): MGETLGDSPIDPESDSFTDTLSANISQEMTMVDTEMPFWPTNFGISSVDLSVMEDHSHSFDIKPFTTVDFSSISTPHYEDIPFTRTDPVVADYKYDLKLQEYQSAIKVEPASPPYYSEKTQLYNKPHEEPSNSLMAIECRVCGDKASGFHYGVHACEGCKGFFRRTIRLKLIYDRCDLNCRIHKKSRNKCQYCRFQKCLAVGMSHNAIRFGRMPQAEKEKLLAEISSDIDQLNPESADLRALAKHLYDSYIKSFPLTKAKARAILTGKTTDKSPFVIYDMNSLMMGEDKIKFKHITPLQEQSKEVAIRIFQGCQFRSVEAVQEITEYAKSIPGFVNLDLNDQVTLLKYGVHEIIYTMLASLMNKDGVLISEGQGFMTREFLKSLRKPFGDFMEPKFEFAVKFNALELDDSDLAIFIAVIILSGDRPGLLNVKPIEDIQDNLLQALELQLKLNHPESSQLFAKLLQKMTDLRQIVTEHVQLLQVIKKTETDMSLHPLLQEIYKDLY

PPAR-α = biological target: T2, PPAR-α (Homo sapiens, UniProt Q07869); experiment: Scintillation Proximity Assay (SPA), displacement of 3H labeled GW2331; format: binding; conditions: 3H GW2331 displacement, read-out: PPAR-alpha Ki
T2 sequence (Q07869 1-468): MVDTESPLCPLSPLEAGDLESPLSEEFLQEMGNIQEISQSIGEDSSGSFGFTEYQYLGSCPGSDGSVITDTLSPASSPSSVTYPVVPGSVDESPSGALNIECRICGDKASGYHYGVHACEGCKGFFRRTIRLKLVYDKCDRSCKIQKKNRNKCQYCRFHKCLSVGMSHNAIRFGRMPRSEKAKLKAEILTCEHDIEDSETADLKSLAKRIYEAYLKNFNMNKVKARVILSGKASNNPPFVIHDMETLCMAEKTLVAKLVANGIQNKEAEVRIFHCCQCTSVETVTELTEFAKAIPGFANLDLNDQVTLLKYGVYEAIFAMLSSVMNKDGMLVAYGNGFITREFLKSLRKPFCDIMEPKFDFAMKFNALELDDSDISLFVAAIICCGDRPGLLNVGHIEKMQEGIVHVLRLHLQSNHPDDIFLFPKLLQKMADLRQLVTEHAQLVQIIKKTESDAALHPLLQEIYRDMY

Row | SMILES | Ki (PPAR-γ) | Ki (PPAR-α)
1 | COC(C)(Cc1ccc(OCCN(C)c2nc3ccccc3o2)nc1)C(=O)O [Example D-34] | 9100 nM | 3200 nM
2 | Cc1oc(-c2ccccc2)nc1CCCOc1ccc2cc(CC3(C(=O)O)CCCO3)ccc2c1 (stereo not drawn) [Example C-92] | 1100 nM | 2800 nM
3 | Cc1oc(-c2ccccc2)nc1COC(=O)NCc1ccc(OC(C)(C)C(=O)O)cc1 [Example B-08] | 480 nM | 3100 nM
4 | COC(C)(Cc1ccc(OCCCc2nc(-c3ccccc3)oc2C)cn1)C(=O)O [Example D-28] | 1600 nM | 4800 nM
5 | CCC(Oc1cccc(CNC(=O)OCc2nc(-c3ccccc3)oc2C)c1)C(=O)O (stereo not drawn) [Example B-14] | 2300 nM | 21 nM
6 | CN(CCOc1ccc(CC2(C(=O)O)CCCO2)cn1)c1nc2ccccc2o1 (stereo not drawn) [Example C-69] | 1100 nM | 2500 nM
7 | O=C(O)C1(Cc2ccc(OCCc3ccc(-c4cccc(OC(F)(F)F)c4)cc3)cc2)CCC1 [Example C-09] | 1400 nM | 4600 nM
8 | Cc1oc(-c2ccc(Cl)cc2)nc1CCOc1ccc(CC2(C(=O)O)CCCO2)nc1 (stereo not drawn) [Example C-52] | 300 nM | 150 nM
9 | Cc1oc(-c2ccccc2)nc1CCCOC(=O)NCc1cccc(OC(C)(C)C(=O)O)c1 [Example B-19] | 740 nM | 340 nM
10 | Cc1oc(-c2ccccc2)nc1CCOc1ccc(CC2(C(=O)O)CCCC2)cn1 [Example C-46] | 2000 nM | 3500 nM
11 | COC(Cc1ccc(OCCc2nc(-c3ccc(C#N)cc3)oc2C)nc1)C(=O)O [Example D-02] | 460 nM | 290 nM
12 | CCOC(Cc1ccc(OCCc2ccc(OC(F)(F)F)cc2)nc1)C(=O)O [Example D-20] | 480 nM | 840 nM
13 | Cc1oc(-c2cccc(F)c2)nc1COc1cccc(-c2cccc(OC3(C(=O)O)CCC3)c2)c1 [Example A-11] | 580 nM | 120 nM
14 | Cc1oc(-c2ccccc2)nc1CCOc1ccc(OC2(C(=O)O)CCC2)cc1 [Example C-40] | 3700 nM | 700 nM
15 | COC(Cc1ccc(OCCc2nc(-c3ccc(Cl)cc3)oc2C)nc1)C(=O)O [Example D-04] | 440 nM | 290 nM
16 | Cc1oc(-c2ccccc2)nc1CCOC(=O)NCc1cccc(OC(C)(C)C(=O)O)c1 [Example B-05] | 1330 nM and 2900 nM and 2000 nM | 2040 nM and 3200 nM and 3600 nM
17 | Cc1oc(-c2ccccc2)nc1CCCOC(=O)NCc1ccc(OC(C)(C)C(=O)O)cc1 [Example B-07] | 650 nM | 12000 nM

Continued, values first:

Row | Ki (PPAR-γ) | Ki (PPAR-α) | SMILES
18 | 170 nM | 190 nM | CC(C)(Oc1cccc(CNC(=O)OCc2cccc(Oc3ccccc3)c2)c1)C(=O)O [Example B-10]
19 | 11 nM | 300 nM | Cc1oc(-c2ccccc2)nc1COc1ccc2cc(CC3(C(=O)O)CCCO3)ccc2c1 (stereo not drawn) [Example C-93]
20 | 15 nM | 750 nM | Cc1oc(-c2ccc(C(N)=O)cc2)nc1CCOc1ccc(CC2(C(=O)O)CCCO2)cc1 (stereo not drawn) [Example C-81]
21 | 180 nM | 140 nM | Cc1onc(-c2ccccc2)c1COc1cccc(-c2cccc(OC3(C(=O)O)CCC3)c2)c1 [Example A-20]
22 | 8 nM | 4 nM | Cc1ccc(-c2nc(CCOc3ccc(CC4(C(=O)O)CCCO4)cc3)c(C)o2)cc1 (stereo not drawn) [Example C-83]
23 | 43 nM | 1100 nM | Cc1cccc(-c2nc(CCOc3ccc(CC4(C(=O)O)CCCO4)nc3)c(C)o2)c1 (stereo not drawn) [Example C-50]
24 | 35 nM | 150 nM | Cc1cccc(-c2nc(CCOc3ccc(CC4(C(=O)O)CCC4)cc3)c(C)o2)c1 [Example C-32]
25 | 17 nM | 110 nM | Cc1oc(-c2ccc(C(F)(F)F)cc2)nc1CCOc1ccc(CC2(C(=O)O)CCCO2)cc1 (stereo not drawn) [Example C-90]
26 | 26 nM | 15 nM | Cc1oc(-c2ccc(Cl)cc2)nc1CCOc1ccc(CC2(C(=O)O)CCC2)cc1 [Example C-27]
27 | 190 nM | 2500 nM | Cc1oc(-c2ccc(C(N)=O)cc2)nc1CCOc1ccc(CC2(C(=O)O)CCC2)cc1 [Example C-23]
